In US6306822A, “Phosphopeptides and methods of treating bone diseases” (Big Bear Bio, Inc., priority 1998, dated 2001):

Assays:
ovariectomized rats = test: Ovariectomized rat osteoporosis model, femur bone mineral content by DEXA; format: in vivo, Harlan-Sprague-Dawley rats; conditions: Day 45, femur, OVX rats; compared with sham (positive) and OVX saline (negative) controls; doses and routes per b114 table
Description: Ovariectomized rats were chosen for the efficacy study of O-phosphoserine containing polypeptides. Ovaries were surgically resected from young female Harlan-Sprague-Dawley rats. Sham-operated rats were also prepared to use as positive controls.
After 7 days acclimation, the ovariectomized (OVX) rats were randomly divided into different treatment groups (6 animals per each group). Six sham-operated rats were assigned to the positive control group. Each group was fed a normal rat diet throughout the test period but received different treatments as summarized below: […]
The test samples four groups 3, 4, 5, and 6 were dissolved in saline and administered at once. Total volume of the sample solution was 1 ml and 0.1 ml per animal for oral and parenteral administration, respectively. Oral preparations were administered once a day and injection (s.c.) was every three days.
The group receiving the highest amount of oral Pse (group 3) was used to compare the efficacy of monomeric Pse versus Pse contained in a polypeptide.
On Days 0, 45, and 90 of the treatment, the femurs of most of the participating animals were subject to DEXA (dual energy X-ray absorptiometry) measurement, a typical method by which to study the status of bone growth. The animals were anesthetized and fixed on the bed when receiving the DEXA scan. […]

[1] = system: bone formation and resorption; test: In vitro or ex vivo bone formation and resorption assay systems; conditions: typical in vitro or ex vivo bone formation and resorption assay systems
From the text: The mechanism of action of these polypeptides is not completely understood. […] These peptides may increase to bone formation by attracting calcium which is solubilized in the biological fluids (serum, bone marrow, and so on, etc.). In addition, these peptides may have an effect on the formation or cross-linking of bone matrix proteins, by forming hydroxyapatite on or between such matrix proteins.

N[C@@H](COP(=O)(O)O)C(=O)O [Pse, O-phosphoserine]
bone mineral content (BMC) measured by DEXA (ovariectomized rats): close to that of the negative control
biological effect on bone [1]: neither the O-phosphoserine-containingpolypeptides nor O-phosphoserine monomer had any biological effect
